Results reported in the supplement of paper PMC11061612.

What was measured:
Carboplatin = compound: C1CC(C1)(C(=O)[O-])C(=O)[O-].N.N.[Pt+2] [Carboplatin]; conditions: max 10 µM
In short: (§1)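 Plates with 1536 wells received cancer cell lines in 7.5 μl of DMEM/F12 or RPMI containing 10% FBS. After 24 hours at 37°C and 5% CO2, cells were dosed for 72 hours with final DMSO typically 0.2%, and viability was read by CellTiter-Glo 2.0 luminescence scaled between blank-well and DMSO-well means. The single-agent IC50 was taken from a logistic fit of the dose responses made with a non-linear mixed effects model, that logistic curve having two parameters.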

AZD5363 = compound: C1CN(CCC1(C(=O)N[C@@H](CCO)C2=CC=C(C=C2)Cl)N)C3=NC=NC4=C3C=CN4 [AZD5363]; conditions: max 10 µM
In short: as §1

AZD1775 = compound: C=CCn1c(=O)c2cnc(Nc3ccc(N4CCN(C)CC4)cc3)nc2n1-c1cccc(C(C)(C)O)n1 [AZD1775]; conditions: max 3 µM
In short: as §1

Trametinib = compound: CC(=O)Nc1cccc(-n2c(=O)n(C3CC3)c(=O)c3c(Nc4ccc(I)cc4F)n(C)c(=O)c(C)c32)c1 [Trametinib]; conditions: max 1 µM
In short: as §1

Paclitaxel = compound: CC(=O)O[C@H]1C(=O)[C@@]2(C)[C@H]([C@H](OC(=O)c3ccccc3)[C@]3(O)C[C@H](OC(=O)[C@H](O)[C@@H](NC(=O)c4ccccc4)c4ccccc4)C(C)=C1C3(C)C)[C@]1(OC(C)=O)CO[C@@H]1C[C@@H]2O [Paclitaxel]; conditions: max 3 µM
In short: as §1

Palbociclib = compound: CC(=O)c1c(C)c2cnc(Nc3ccc(N4CCNCC4)cn3)nc2n(C2CCCC2)c1=O [Palbociclib]; conditions: max 10 µM
In short: as §1

AZD1390 = compound: CC(C)n1c(=O)n(C)c2cnc3cc(F)c(-c4ccc(OCCCN5CCCCC5)nc4)cc3c21 [AZD1390]; conditions: max 0.3 µM
In short: as §1

Venetoclax = compound: CC1(C)CCC(CN2CCN(c3ccc(C(=O)NS(=O)(=O)c4ccc(NCC5CCOCC5)c([N+](=O)[O-])c4)c(Oc4cnc5[nH]ccc5c4)c3)CC2)=C(c2ccc(Cl)cc2)C1 [Venetoclax]; conditions: max 1 µM
In short: as §1

Dasatinib = compound: CC1=C(C(=CC=C1)Cl)NC(=O)C2=CN=C(S2)NC3=CC(=NC(=N3)C)N4CCN(CC4)CCO [Dasatinib]; conditions: max 2 µM
In short: as §1

SG3199 = compound: CC1=CN2[C@@H](C1)C=NC3=CC(=C(C=C3C2=O)OC)OCCCCCOC4=C(C=C5C(=C4)N=C[C@@H]6CC(=CN6C5=O)C)OC [SG3199]; conditions: max 0.001 µM
In short: as §1

AZD2811 = compound: CCN(CCO)CCCOc1ccc2c(Nc3cc(CC(=O)Nc4cccc(F)c4)[nH]n3)ncnc2c1 [AZD2811]; conditions: max 1 µM
In short: as §1

SN-38 = compound: CCc1c2c(nc3ccc(O)cc13)-c1cc3c(c(=O)n1C2)COC(=O)[C@]3(O)CC [SN-38]; conditions: max 0.3 µM
In short: as §1

AZD0156 = compound: CN(C)CCCOc1ccc(-c2ccc3ncc4c(c3c2)n(C2CCOCC2)c(=O)n4C)cn1 [AZD0156]; conditions: max 3 µM
In short: as §1

AZD4320 = compound: CN(CC[C@H](CSC1=CC=CC=C1)NC2=C(C=C(C=C2)S(=O)(=O)NC(=O)C3=CC=C(C=C3)N4CCC(CC4)[C@H](C5=CC=CC=C5C6=CC=C(C=C6)Cl)O)S(=O)(=O)C(F)(F)F)CCO [AZD4320]; conditions: max 1 µM
In short: as §1

Alisertib = compound: COc1cc(Nc2ncc3c(n2)-c2ccc(Cl)cc2C(c2c(F)cccc2OC)=NC3)ccc1C(=O)O [Alisertib]; conditions: max 10 µM
In short: as §1

Etoposide = compound: COc1cc([C@@H]2c3cc4c(cc3[C@@H](O[C@@H]3O[C@@H]5CO[C@@H](C)O[C@H]5[C@H](O)[C@H]3O)[C@H]3COC(=O)[C@H]23)OCO4)cc(OC)c1O [Etoposide]; conditions: max 10 µM
In short: as §1

Gefitinib = compound: COc1cc2ncnc(Nc3ccc(F)c(Cl)c3)c2cc1OCCCN1CCOCC1 [Gefitinib]; conditions: max 10 µM
In short: as §1

Prexasertib = compound: COc1cccc(OCCCN)c1-c1cc(Nc2cnc(C#N)cn2)n[nH]1 [Prexasertib]; conditions: max 1 µM
In short: as §1

Doxorubicin = compound: COc1cccc2c1C(=O)c1c(O)c3c(c(O)c1C2=O)C[C@@](O)(C(=O)CO)C[C@@H]3O[C@H]1C[C@H](N)[C@H](O)[C@H](C)O1 [Doxorubicin]; conditions: max 1 µM
In short: as §1

AZD5153 = compound: COc1nnc2ccc(N3CCC(c4ccc(OCCN5CCN(C)C(=O)[C@H]5C)cc4)CC3)nn12 [AZD5153]; conditions: max 1 µM
In short: as §1

Lapatinib = compound: CS(=O)(=O)CCNCc1ccc(-c2ccc3ncnc(Nc4ccc(OCc5cccc(F)c5)c(Cl)c4)c3c2)o1 [Lapatinib]; conditions: max 10 µM
In short: as §1

AZD8186 = compound: C[C@@H](Nc1cc(F)cc(F)c1)c1cc(C(=O)N(C)C)cc2c(=O)cc(N3CCOCC3)oc12 [AZD8186]; conditions: max 10 µM
In short: as §1

Crizotinib = compound: C[C@@H](Oc1cc(-c2cnn(C3CCNCC3)c2)cnc1N)c1c(Cl)ccc(F)c1Cl [Crizotinib]; conditions: max 10 µM
In short: as §1

Savolitinib = compound: C[C@@H](c1ccc2nccn2c1)n1nnc2ncc(-c3cnn(C)c3)nc21 [Savolitinib]; conditions: max 1 µM
In short: as §1

AZD6738 = compound: C[C@@H]1COCCN1C2=NC(=NC(=C2)C3(CC3)[S@](=N)(=O)C)C4=C5C=CNC5=NC=C4 [AZD6738]; conditions: max 10 µM
In short: as §1

AZD5991 = compound: Cc1c2c(nn1C)CSCc1cc(n(C)n1)CSc1cc(c3ccccc3c1)OCCCc1c(C(=O)O)n(C)c3c-2c(Cl)ccc13 [AZD5991]; conditions: max 1 µM
In short: as §1

AZD7648 = compound: Cc1cc2ncnn2cc1Nc1ncc2c(n1)n(C1CCOCC1)c(=O)n2C [AZD7648]; conditions: max 10 µM
In short: as §1

Taselisib = compound: Cc1nc(-c2cn3c(n2)-c2ccc(-c4cnn(C(C)(C)C(N)=O)c4)cc2OCC3)n(C(C)C)n1 [Taselisib]; conditions: max 10 µM
In short: as §1

Selumetinib = compound: Cn1cnc2c(F)c(Nc3ccc(Br)cc3Cl)c(C(=O)NOCCO)cc21 [Selumetinib]; conditions: max 10 µM
In short: as §1

SRA737 = compound: N#Cc1cnc(Nc2cc(NC[C@H]3CNCCO3)c(C(F)(F)F)cn2)cn1 [SRA737]; conditions: max 10 µM
In short: as §1

MK-2206 = compound: NC1(c2ccc(-c3nc4ccn5c(=O)[nH]nc5c4cc3-c3ccccc3)cc2)CCC1 [MK-2206]; conditions: max 10 µM
In short: as §1

Gemcitabine = compound: Nc1ccn([C@@H]2O[C@H](CO)[C@@H](O)C2(F)F)c(=O)n1 [Gemcitabine]; conditions: max 0.3 µM
In short: as §1

[1] = compound: O=C(Nc1ccc2[nH]nc(-c3ccncc3)c2c1)[C@@H]1CCN(CC(=O)N2CCN(c3ccc(-c4ncccn4)cc3)CC2)C1; conditions: max 5 µM
In short: as §1

Olaparib = compound: O=C(c1cc(Cc2n[nH]c(=O)c3ccccc23)ccc1F)N1CCN(C(=O)C2CC2)CC1 [Olaparib]; conditions: max 10 µM
In short: as §1

5-Fluorouracil = compound: O=c1[nH]cc(F)c(=O)[nH]1 [5-Fluorouracil]; conditions: max 20 µM
In short: as §1

A4-Fuk (B-Lymphoblastic Leukemia)
IC50, cell viability 72 h (Carboplatin): > 10000 nM | IC50, cell viability 72 h (AZD5363): 2060 nM | IC50, cell viability 72 h (AZD1775): 110 nM | IC50, cell viability 72 h (Trametinib): 282 nM | IC50, cell viability 72 h (Paclitaxel): 3.17 nM | IC50, cell viability 72 h (Palbociclib): 4240 nM | IC50, cell viability 72 h (AZD1390): > 300 nM | IC50, cell viability 72 h (Venetoclax): 966 nM | IC50, cell viability 72 h (Dasatinib): > 2000 nM | IC50, cell viability 72 h (SG3199): > 1 nM | IC50, cell viability 72 h (AZD2811): > 1000 nM | IC50, cell viability 72 h (SN-38): 17.4 nM | IC50, cell viability 72 h (AZD0156): 2420 nM | IC50, cell viability 72 h (AZD4320): > 1000 nM | IC50, cell viability 72 h (Alisertib): 207 nM | IC50, cell viability 72 h (Etoposide): 321 nM | IC50, cell viability 72 h (Gefitinib): > 10000 nM | IC50, cell viability 72 h (Prexasertib): 7.45 nM | IC50, cell viability 72 h (Doxorubicin): 237 nM | IC50, cell viability 72 h (AZD5153): 29.4 nM | IC50, cell viability 72 h (Lapatinib): 7570 nM | IC50, cell viability 72 h (AZD8186): 5860 nM | IC50, cell viability 72 h (Crizotinib): 2210 nM | IC50, cell viability 72 h (Savolitinib): > 1000 nM | IC50, cell viability 72 h (AZD6738): 2210 nM | IC50, cell viability 72 h (AZD5991): 77.6 nM | IC50, cell viability 72 h (AZD7648): 5150 nM | IC50, cell viability 72 h (Taselisib): 234 nM | IC50, cell viability 72 h (Selumetinib): > 10000 nM | IC50, cell viability 72 h (SRA737): 844 nM | IC50, cell viability 72 h (MK-2206): 2770 nM | IC50, cell viability 72 h (Gemcitabine): 6.82 nM | IC50, cell viability 72 h [1]: 771 nM | IC50, cell viability 72 h (Olaparib): > 10000 nM | IC50, cell viability 72 h (5-Fluorouracil): 3920 nM

COLO-668 (Small Cell Lung Carcinoma)
IC50, cell viability 72 h (Carboplatin): > 10000 nM | IC50, cell viability 72 h (AZD5363): > 10000 nM | IC50, cell viability 72 h (AZD1775): > 3000 nM | IC50, cell viability 72 h (Trametinib): 408 nM | IC50, cell viability 72 h (Paclitaxel): > 3000 nM | IC50, cell viability 72 h (Palbociclib): > 10000 nM | IC50, cell viability 72 h (AZD1390): > 300 nM | IC50, cell viability 72 h (Venetoclax): > 1000 nM | IC50, cell viability 72 h (Dasatinib): > 2000 nM | IC50, cell viability 72 h (SG3199): > 1 nM | IC50, cell viability 72 h (AZD2811): > 1000 nM | IC50, cell viability 72 h (SN-38): 5.32 nM | IC50, cell viability 72 h (AZD0156): > 3000 nM | IC50, cell viability 72 h (AZD4320): 319 nM | IC50, cell viability 72 h (Alisertib): > 10000 nM | IC50, cell viability 72 h (Etoposide): > 10000 nM | IC50, cell viability 72 h (Gefitinib): > 10000 nM | IC50, cell viability 72 h (Prexasertib): 63.7 nM | IC50, cell viability 72 h (Doxorubicin): 329 nM | IC50, cell viability 72 h (AZD5153): > 1000 nM | IC50, cell viability 72 h (Lapatinib): > 10000 nM | IC50, cell viability 72 h (AZD8186): > 10000 nM | IC50, cell viability 72 h (Crizotinib): > 10000 nM | IC50, cell viability 72 h (Savolitinib): > 1000 nM | IC50, cell viability 72 h (AZD6738): 8160 nM | IC50, cell viability 72 h (AZD5991): > 1000 nM | IC50, cell viability 72 h (AZD7648): > 10000 nM | IC50, cell viability 72 h (Taselisib): 5340 nM | IC50, cell viability 72 h (Selumetinib): > 10000 nM | IC50, cell viability 72 h (SRA737): > 10000 nM | IC50, cell viability 72 h (MK-2206): > 10000 nM | IC50, cell viability 72 h (Gemcitabine): 41.3 nM | IC50, cell viability 72 h [1]: 4480 nM | IC50, cell viability 72 h (Olaparib): > 10000 nM | IC50, cell viability 72 h (5-Fluorouracil): > 20000 nM
